From patent publication US9085555B2, “Complement pathway modulators and uses thereof” (priority 2011, dated 2015) come the findings set out here.

This assay concerns the target Factor D (Homo sapiens (Human), UniProt P00746). Briefly: biochemical. As to conditions: read-out: IC50. Type of assay: biochemical.

By IC50 is commonly meant the midpoint of a concentration-inhibition curve.

Factor D, sequence (P00746 26-253): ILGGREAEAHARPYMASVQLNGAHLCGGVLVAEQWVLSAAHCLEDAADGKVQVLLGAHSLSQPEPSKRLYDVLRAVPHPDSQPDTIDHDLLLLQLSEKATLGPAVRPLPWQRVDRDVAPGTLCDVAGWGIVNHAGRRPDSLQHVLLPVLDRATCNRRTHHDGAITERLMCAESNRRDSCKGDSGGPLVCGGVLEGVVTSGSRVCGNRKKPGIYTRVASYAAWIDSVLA

In the case of `Cc1nccc2c(C(N)=O)nn(CC(=O)N3[C@@H]4C[C@@H]4C[C@H]3C(=O)NCc3cccc(Cl)c3F)c12` [Example 694, 1-{2-[(1R,3S,5R)-3-(3-Chloro-2-fluoro-benzylcarbamoyl)-2-aza-bicyclo[3.1.0]hex-2-yl]-2-oxo-ethyl}-7-methyl-1H-pyrazolo[3,4-c]pyridine-3-carboxylic acid amide], the IC50 came out at 0.017 µM.
For the compound `Cc1cc2c(C(N)=O)nn(CC(=O)N3[C@@H]4C[C@@H]4C[C@H]3C(=O)NCc3cccc(Cl)c3F)c2c(C)n1` [Example 695, 1-{2-[(1R,3S,5R)-3-(3-Chloro-2-fluoro-benzylcarbamoyl)-2-aza-bicyclo[3.1.0]hex-2-yl]-2-oxo-ethyl}-5,7-dimethyl-1H-pyrazolo[3,4-c]pyridine-3-carboxylic acid amide], the IC50 was found to be 0.015 µM.
`Cc1cc2c(C(N)=O)nn(CC(=O)N3[C@@H]4C[C@@H]4C[C@H]3C(=O)N[C@H](C)c3cccc(Cl)c3F)c2c(C)n1` [Example 696, 1-(2-{(1R,3S,5R)-3-[(R)-1-(3-Chloro-2-fluoro-phenyl)-ethylcarbamoyl]-2-aza-bicyclo[3.1.0]hex-2-yl}-2-oxo-ethyl)-5,7-dimethyl-1H-pyrazolo[3,4-c]pyridine-3-carboxylic acid amide]: the half-inhibitory concentration (IC50) turned out to be 0.101 µM.
As to `CCc1cc2c(C(N)=O)nn(CC(=O)N3C[C@H](F)[C@@H](OC)[C@H]3C(=O)NCc3cccc(Cl)c3F)c2cn1` [Example 697, 1-{2-[(2S,3S,4S)-2-(3-Chloro-2-fluoro-benzylcarbamoyl)-4-fluoro-3-methoxy-pyrrolidin-1-yl]-2-oxo-ethyl}-5-ethyl-1H-pyrazolo[3,4-c]pyridine-3-carboxylic acid amide], the half-maximal inhibitory concentration (IC50) is 0.003 µM.
Take `C[C@@H](NC(=O)[C@@H]1C[C@H]2C[C@H]2N1C(=O)Cn1nc(C(N)=O)c2cc(C(F)(F)F)ncc21)c1cccc(Cl)c1F` [Example 699, 1-(2-{(1R,3S,5R)-3-[(R)-1-(3-Chloro-2-fluoro-phenyl)-ethylcarbamoyl]-2-aza-bicyclo[3.1.0]hex-2-yl}-2-oxo-ethyl)-5-trifluoromethyl-1H-pyrazolo[3,4-c]pyridine-3-carboxylic acid amide]: the IC50 was found to be 0.118 µM.
As to `NC(=O)c1nn(CC(=O)N2[C@@H]3C[C@@H]3C[C@H]2C(=O)NCc2cccc(Cl)c2F)c2cnc(C3CC3)cc12` [Example 700, 1-{2-[(1R,3S,5R)-3-(3-Chloro-2-fluoro-benzylcarbamoyl)-2-aza-bicyclo[3.1.0]hex-2-yl]-2-oxo-ethyl}-5-cyclopropyl-1H-pyrazolo[3,4-c]pyridine-3-carboxylic acid amide], the half-inhibitory concentration (IC50) was determined as 0.006 µM.
Take `C[C@@H](NC(=O)[C@@H]1C[C@H]2C[C@H]2N1C(=O)Cn1nc(C(N)=O)c2cc(C3CC3)ncc21)c1cccc(Cl)c1F` [Example 701, 1-(2-{(1R,3S,5R)-3-[(R)-1-(3-Chloro-2-fluoro-phenyl)-ethylcarbamoyl]-2-aza-bicyclo[3.1.0]hex-2-yl}-2-oxo-ethyl)-5-cyclopropyl-1H-pyrazolo[3,4-c]pyridine-3-carboxylic acid amide]: the IC50 was 0.015 µM.
Then `NC(=O)c1nn(CC(=O)N2[C@@H]3C[C@@H]3C[C@H]2C(=O)NCc2cccc(Cl)c2F)c2cnccc12` [Example 703, 1-(2-((1R,3S,5R)-3-((3-Chloro-2-fluorobenzyl)carbamoyl)-2-azabicyclo[3.1.0]hexan-2-yl)-2-oxoethyl)-1H-pyrazolo[3,4-c]pyridine-3-carboxamide], with 0.01 µM.
Under `CC(=O)c1cn(CC(=O)N2[C@@H]3C[C@@H]3C[C@H]2C(=O)NCc2cccc(Cl)c2F)c2nc(C(=O)O)ccc12` [Example 704, 3-Acetyl-1-{2-[(1R,3S,5R)-3-(3-chloro-2-fluoro-benzylcarbamoyl)-2-aza-bicyclo[3.1.0]hex-2-yl]-2-oxo-ethyl}-1H-pyrrolo[2,3-b]pyridine-6-carboxylic acid] stands 0.023 µM; under `NC(=O)c1nn(CC(=O)N2[C@@H]3C[C@@H]3C[C@H]2C(=O)NCc2cccc(Cl)c2F)c2c[n+]([O-])ccc12` [Example 705, 3-Carbamoyl-1-(2-((1R,3S,5R)-3-(3-chloro-2-fluorobenzylcarbamoyl)-2-azabicyclo[3.1.0]hexan-2-yl)-2-oxoethyl)-1H-pyrazolo[3,4-c]pyridine 6-oxide], 0.021 µM.
Under `C[C@@H](NC(=O)[C@@H]1C[C@H]2C[C@H]2N1C(=O)Cn1nc(C(N)=O)c2cc[n+]([O-])cc21)c1cccc(Cl)c1F` [Example 706, 3-Carbamoyl-1-(2-((1R,3S,5R)-3-((R)-1-(3-chloro-2-fluorophenyl)ethyl-carbamoyl)-2-azabicyclo[3.1.0]hexan-2-yl)-2-oxoethyl)-1H-pyrazolo[3,4-c]pyridine 6-oxide] stands 0.045 µM.
Consider `NC(=O)c1nn(CC(=O)N2[C@@H]3C[C@@H]3C[C@H]2C(=O)Nc2cccc(OC(F)(F)F)c2F)c2ccccc12` [Example 707, 1-{2-[(1R,3S,5R)-3-(2-Fluoro-3-trifluoromethoxy-phenylcarbamoyl)-2-aza-bicyclo[3.1.0]hex-2-yl]-2-oxo-ethyl}-1H-indazole-3-carboxylic acid amide], for which the half-maximal inhibitory concentration (IC50) stood at 0.088 µM.
On to `NC(=O)c1nn(CC(=O)N2C[C@H](F)C[C@H]2C(=O)Nc2cccc(OC(F)(F)F)c2F)c2ccccc12` [Example 708], for which the IC50 was found to be 0.054 µM.
`NC(=O)c1nn(CC(=O)N2[C@@H]3C[C@@H]3C[C@H]2C(=O)Nc2cccc(OC(F)(F)F)c2F)c2ccncc12` [Example 709, 1-(2-((1R,3S,5R)-3-(2-fluoro-3-(trifluoromethoxy)phenylcarbamoyl)-2-azabicyclo[3.1.0]hexan-2-yl)-2-oxoethyl)-1H-pyrazolo[4,3-c] pyridine-3-carboxamide]: the IC50 was found to be 0.144 µM.
Take `COC(=O)c1ccc2c(C(C)=O)nn(CC(=O)N3[C@@H]4C[C@@H]4C[C@H]3C(=O)Nc3cccc(OC(F)(F)F)c3F)c2c1` [Example 710, Methyl 3-acetyl-1-(2-((1R,3S,5R)-3-(2-fluoro-3-(trifluoromethoxy)phenylcarbamoyl)-2-azabicyclo [3.1.0]hexan-2-yl)-2-oxoethyl)-1H-indazole-6-carboxylate]: the IC50 was determined as 0.052 µM.
Regarding `CC(=O)c1nn(CC(=O)N2[C@@H]3C[C@@H]3C[C@H]2C(=O)Nc2cccc(OC(F)(F)F)c2F)c2ncccc12` [Example 711, (1R,3S,5R)-2-[2-(3-Acetyl-pyrazolo[3,4-b]pyridin-1-yl)-acetyl]-2-aza-bicyclo[3.1.0]hexane-3-carboxylic acid (2-fluoro-3-trifluoromethoxy-phenyl)-amide], the IC50 worked out at 0.071 µM.
Then `CCc1cc2c(C(N)=O)nn(CC(=O)N3[C@@H]4C[C@@H]4C[C@H]3C(=O)Nc3cccc(OC(F)(F)F)c3F)c2cn1` [Example 712, 5-Ethyl-1-{2-[(1R,3S,5R)-3-(2-fluoro-3-trifluoromethoxy-phenylcarbamoyl)-2-aza-bicyclo[3.1.0]hex-2-yl]-2-oxo-ethyl}-1H-pyrazolo[3,4-c]pyridine-3-carboxylic acid amide], with 0.038 µM; and `Cc1cc2c(cn1)c(C(N)=O)nn2CC(=O)N1[C@@H]2C[C@@H]2C[C@H]1C(=O)Nc1cccc(OC(F)(F)F)c1F` [Example 713, 1-{2-[(1R,3S,5R)-3-(2-Fluoro-3-trifluoromethoxy-phenylcarbamoyl)-2-aza-bicyclo[3.1.0]hex-2-yl]-2-oxo-ethyl}-6-methyl-1H-pyrazolo[4,3-c]pyridine-3-carboxylic acid amide], with 0.26 µM.
